Patent US9339508B2, “Use of 3-methoxy-pregnenolone for the preparation of a drug for treating a traumatic brain injury” (MAPREG, priority 2003, dated 2016)

Experiments:
Type in all cases: in vivo, rat
Sprague Dawley rats [1] = test: Novel object recognition test, naive animals, 4 h ITI; conditions: 10 mg/kg subcutaneously immediately after T1
From the text: (§1) Cognitive dysfunction, including impaired recognition memory, are common features in depressed patients (Egeland et al., Scand. J. Psychol. 2005). The present experiment explored the ability of 3-methoxy-PREG (43B) administration to increase recognition memory retention in naive animals and to recover recognition memory deficits in animals submitted to the social isolation protocol. Rearing rats in isolation from the time of weaning and throughout adulthood can induce a series of hippocampal structural and molecular deficits paralled by behavioural alterations resembling a depressive-like state (Weiss and Feldon, Psychopharmacology 2001; Bianchi et al., EJN 2006). Recognition memory was assessed using the NOR test which is a two-trial test of recognition memory based on the spontaneous preference of rats for novelty (Ennaceur and Delacour, Behav. Brain. Res. 1988; Bianchi et al. EJN. 2006). Briefly, rats are placed in the open field arena for a 3 min period of habituation and then re-placed in their “home” cage for 1 min. The animals are then re-placed in the arena for the familiarization trial (T1) and allowed to explore two identical objects for 5 min. […] The ability of the animals to discriminate between the novel and the familiar object is then expressed as D2-INDEX: [novel object (sec)−familiar object (sec)]/[novel object (sec)+familiar object (sec)] […]

MAP2 = test: Western blot of MAP2 in cortex and hippocampus after CCI; conditions: day 35, 20 mg/kg, first injection 2 h post-trauma, injured and non-injured cortex and hippocampus
Protocol: (§2) CCI was performed with an electromagnetic impact device as described (MyNeurolab, St. Louis, Mo.; Brody et al, 2007). Anesthesized rats were subjected to a single right lateral CCI, with the following parameters impact centered 4.0 mm anterior to lambda and 4.5 mm […] of midline, within the craniotomy of the animal. The impact was set at a velocity of 4 m/s with a sustained depression of 200 ms, using a 5.0 mm tip.
(§3) Samples were analyzed by Western-blot at day 35 post-trauma (D35) to evaluate the effects of MAP4343 on: MAP2 (the target of MAP4343 and a modulator of microtubule function), the post-synaptic markers PSD95 and spinophilin, the pre-synaptic marker synaptophysin, and the axonal growth/integrity marker […].
(§4) Western blot was performed on cortex and hippocampus of TBI-injured animals receiving the first injection of MAP4343 (at 10 mg/kg or 20 mg/kg) or vehicle (sesame oil) 2 h after injury.
(§5) The expression level of various neuronal brain markers of plasticity was measured at day 35 post-trauma by western-blots in the cortex and hippocampus of left uninjured and right injured cerebral hemispheres of CCI traumatized animals receiving either vehicle (sesame oil, CCI-D0) or 3-methoxy-PREG (MAP4343) at 10 mg/kg (CCI-D1) or 20 mg/kg (CCI-D2), with first MAP4343 injection 2 h post-trauma.

social isolated rats = test: Novel object recognition test, social isolated animals, 1 h ITI; conditions: 10 mg/kg subcutaneously 1 h before task
From the text: as §1

[2] = MAP4343 in the brain after TBI (CHI, LFP, CCI) by LC-MS/MS; conditions: 6 h after CHI, LFP or CCI, 4 h after single subcutaneous injection
Protocol: MAP4343 was dissolved in sesame oil and injected sub-cutaneously. Two distinct doses of MAP4343 (10 and 20 mg/kg) were tested in each model. The injection took place 2 h after trauma.
In order to establish whether TBI modifies the passage of MAP4343 into the brain, MAP4343 was measured by liquid chromatography associated to tandem mass spectrometry (LC-MS/MS) in the brain of animals sacrificed 6 h after CHI, LFP or CCI (4 h after MAP4343 single injection).
In order to establish whether TBI modifies the passage of 3-methoxy-PREG (MAP434) into the brain, MAP4343 was measured by liquid chromatography coupled to tandem mass spectrometry LC-MS/MS in the brain of animals sacrificed 6 h after CHI, LFP or CCI (4 h. after MAP4343 injection).

Sprague Dawley rats [3] = test: Forced swimming test (FST); conditions: 10 mg/kg subcutaneously, 24, 5, 1 h before testing
Protocol: Drugs were administered following the traditional dosing regimen used in the FST consisting of three injections: 24, 5, 1 h before testing.
The FET is currently the most widely used animal model for assessing depression related behavior and antidepressant drug activity in rodents (Cryan et al., Neubiorev. 2005). Rats are placed in an inescapable cylinder of water where they develop an immobile posture believed to reflect a “depressive”-like state. The Lime rats spend immobile is decreased by drugs exerting antidepressant activity.
Additional behaviors can be detected in the FST; namely, climbing and swimming. It has been shown that swimming behavior is sensitive to SSRIs such as fluoxetine whereas climbing is sensitive to norepinephrine re-uptake inhibitors (NRI) such as desipramine.

spinophilin = test: Western blot of spinophilin in cortex and hippocampus after CCI; conditions: day 35, 10 mg/kg or 20 mg/kg, first injection 2 h post-trauma, injured cortex and hippocampus and contralaterally
Protocol: as §2, §3, §4, §5

PSD95 = test: Western blot of PSD95 in cortex and hippocampus after CCI; conditions: day 35, 20 mg/kg, first injection 2 h post-trauma, ipsilateral injured cortex and hippocampus, contralateral cortex
Protocol: as §2, §3, §4, §5

GAP43 = test: Western blot of GAP43 in cortex and hippocampus after CCI; conditions: day 35, injured cortex (20 mg/kg only), hippocampus and non-injured cortex (both doses)
Protocol: as §2, §3, §4, §5

[4] = Pharmacokinetics by GC/MS, brain and spinal cord; conditions: 12 mg/kg subcutaneous in sesame oil; 1, 4, 8, 24 hours
Protocol: FIG. 9: Kinetics of the appearance of 3-methoxy-PREG (43B) in rat brain and spinal cord following subcutaneous injection of 43B (12 mg/kg) in a sesame oil solution.
The pharmacokinetics of the molecules tested in vivo are evaluated using gas chromatography/mass spectrometry (GC/MS) assays.

Structure (SMILES): CO[C@H]1CC[C@@]2(C)C(=CC[C@H]3[C@@H]4CC[C@H](C(C)=O)[C@@]4(C)CC[C@@H]32)C1 [3-methoxy-PREG, 3β-methoxy-pregna-5-ene-20-one]
- discrimination between novel and familiar object (Sprague Dawley rats [1]): discriminated between the novel and the familiar object showing increased memory retention
- MAP2 expression (MAP2): strong increase of MAP-2
- discrimination between familiar and novel object (social isolated rats): efficiently discriminated between the familiar and the novel object
- concentrations of MAP4343 that reach the brain [2]: concentrations of MAP4343 of significant therapeutic interest reach the brain
- rat climbing behavior in the FST (Sprague Dawley rats [3]): not changed
- rat immobility in the FST (Sprague Dawley rats [3]): significantly decreased
- rat swimming in the FST (Sprague Dawley rats [3]): significantly increased
- spinophilin expression (spinophilin): increase in spinophilin expression
- PSD95 expression (PSD95): increase in PSD95 expression
- GAP-43 expression (GAP43): increased GAP-43 expression
- penetration into spinal cord and brain [4]: penetrates rapidly into the spinal cord and the brain
